# Experiments:
# [1] = test system: Rhodococcus HPPD2; experiment: HPPD activity assay, Rhodococcus HPPD2; assay type: biochemical; details: normalized on Hordeum HPPD
# Description: (§1) HPPD produces homogentisic acid and CO2 from 4-hydroxyphenylpyruvate (4-HPP) and O2. The activity assay for HPPD is based on the analysis of homogentisic acid by reversed phase HPLC.
# (§2) The assay mixture can contain 150 mM potassium phosphate buffer pH 7.0, 50 mM L-ascorbic acid, 1 μM FeSO4 and 7 μg of purified enzyme in a total volume of 1 ml. Inhibitors are dissolved in DMSO (dimethylsulfoxide) to a concentration of 20 mM or 0.5 mM, respectively. From this stock solution serial five-fold dilutions are prepared in DMSO, which are used in the assay. The respective inhibitor solution accounts for 1% of the assay volume. […]
# (§3) Activities are normalized by setting the uninhibited enzyme activity to 100%. […] values are calculated using non-linear regression. […]
# (§4) Inhibitors are dissolved in DMSO (dimethylsulfoxide) to a concentration of 0.5 mM. […] IC50 values are calculated using non-linear regression.
# (§5) Using methods which are described in the above examples or well known in the art, purified, recombinant wildtype HPPD enzymes are characterized with respect to their kinetic properties and sensitivity towards HPPD inhibiting herbicides. Apparent michaelis constants (Km) and maximal reaction velocities (Vmax) are calculated by non-linear regression with the software GraphPad Prism 5 (GraphPad Software, La Jolla, USA) using a substrate inhibition model. […]
# [2] = test system: Arabidopsis wildtype control plants; experiment: Arabidopsis growth inhibition in 48-well plates, wildtype control; assay type: in vivo, Arabidopsis thaliana; details: plant growth IC50 divided by that of wildtype plants
# Description: Depending on the species, the plants are kept at 10-25° C. or 20-35° C. The test period extends over 3 weeks. During this time, the plants are tended and their response to the individual treatments is evaluated. Herbicide injury evaluations are taken at 2 and 3 weeks after treatment. Plant injury is rated on a scale of 0 to 9, 0 being no injury and 9 being complete death. Tolerance to coumarone-derivative herbicides can also be assessed in Arabidopsis. In this case transgenic Arabidopsis thaliana plants are assayed for improved tolerance to coumarone-derivative herbicides in 48-well plates. Seeds are surface sterilized by stirring for 5 min in ethanol+water (70+30 by volume), rinsing one time with ethanol+water (70+30 by volume) and two times with a sterile, deionized water. The seeds are resuspended in 0.1% agar dissolved in water (w/v). Four to five seeds per well are plated on solid nutrient medium consisting of half-strength Murashige Skoog nutrient solution, pH 5.8 (Murashige and Skoog (1962) Physiologia Plantarum 15: 473-497). […] Seven to ten days after seeding growth inhibition is evaluated by comparison to wild type plants. Tolerance factor is calculated by dividing the plant growth IC50 value of transgenic plants containing a HPPD and/or HST sequence by that of wildtype plants. […]
# [3] = biological target: T1, Hordeum HPPD variant G407C (Hordeum vulgare, UniProt O48604, A164G/G407C/R146V/R147D/R148G); experiment: HPPD activity assay, Hordeum HPPD mutant G407C; assay type: biochemical; details: normalized on wildtype
# T1 construct: His6; made in house; host or cells: E. coli BL21 (DE3)
# Description: as §1
# as §2, with “volume. Thus, final inhibitor concentrations range from 200 μM to 2.5 nM or from 5 μM to 63 pM, respectively. After a preincubation of 30 min the reaction is started by adding 4-HPP to a final concentration of 0.1 mM.” for “volume.”
# as §4
# (§6) Purified, mutant HPPD enzymes are obtained by the methods described above. […] Apparent michaelis constants (Km) and maximal reaction velocities (Vmax) are calculated by non-linear regression with the software GraphPad Prism 5 (GraphPad Software, La Jolla, USA) using a substrate inhibition model. […] Weighted means (by standard error) of Km and […] values are calculated from at least three independent experiments. […]
# [4] = biological target: T2, Hordeum HPPD variant L320N (Hordeum vulgare, UniProt O48604, A164G/L320N/R146V/R147D/R148G); experiment: HPPD activity assay, Hordeum HPPD mutant L320N; assay type: biochemical; details: normalized on wildtype
# T2 construct: His6; made in house; host or cells: E. coli BL21 (DE3)
# Description: as §1
# as §2, with “volume. Thus, final inhibitor concentrations range from 200 μM to 2.5 nM or from 5 μM to 63 pM, respectively. After a preincubation of 30 min the reaction is started by adding 4-HPP to a final concentration of 0.1 mM.” for “volume.”
# as §4, §6
# [5] = biological target: T3, Hordeum HPPD variant L334E (Hordeum vulgare, UniProt O48604, A164G/L334E/R146V/R147D/R148G); experiment: HPPD activity assay, Hordeum HPPD mutant L334E; assay type: biochemical; details: normalized on wildtype
# T3 construct: His6; made in house; host or cells: E. coli BL21 (DE3)
# Description: as §1
# as §2, with “volume. Thus, final inhibitor concentrations range from 200 μM to 2.5 nM or from 5 μM to 63 pM, respectively. After a preincubation of 30 min the reaction is started by adding 4-HPP to a final concentration of 0.1 mM.” for “volume.”
# as §4, §6
# [6] = test system: Avena HPPD; experiment: HPPD activity assay, Avena HPPD; assay type: biochemical; details: normalized on Hordeum HPPD
# Description: as §1, §2, §3, §4, §5
# [7] = test system: Rhodococcus HPPD1; experiment: HPPD activity assay, Rhodococcus HPPD1; assay type: biochemical; details: normalized on Hordeum HPPD
# Description: as §1, §2, §3, §4, §5
# T2 sequence (O48604 whole entry R146V/R147D/R148G/A164G/L320N): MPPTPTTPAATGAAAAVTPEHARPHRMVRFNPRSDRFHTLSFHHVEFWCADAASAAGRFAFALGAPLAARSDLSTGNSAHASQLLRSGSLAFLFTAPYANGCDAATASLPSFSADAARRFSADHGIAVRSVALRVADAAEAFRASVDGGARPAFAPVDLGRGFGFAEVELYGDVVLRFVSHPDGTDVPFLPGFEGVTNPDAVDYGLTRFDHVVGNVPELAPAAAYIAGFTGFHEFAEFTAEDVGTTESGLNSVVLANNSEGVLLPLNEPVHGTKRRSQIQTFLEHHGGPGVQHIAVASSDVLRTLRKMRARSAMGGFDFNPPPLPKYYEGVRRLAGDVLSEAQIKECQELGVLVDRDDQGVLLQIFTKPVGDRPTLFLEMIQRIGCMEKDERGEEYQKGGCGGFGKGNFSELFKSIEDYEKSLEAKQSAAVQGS
# T3 sequence (O48604 whole entry R146V/R147D/R148G/A164G/L334E): as the sequence (O48604 whole entry R146V/R147D/R148G/A164G/L320N) above, with N320L, L334E counted along it
# T1 sequence (O48604 whole entry R146V/R147D/R148G/A164G/G407C): as the sequence (O48604 whole entry R146V/R147D/R148G/A164G/L320N) above, with N320L, G407C counted along it
Structure (SMILES),Normalized tolerance index (TI) [1],Tolerance factor [2],Normalized tolerance index (TI) [3],Normalized tolerance index (TI) [4],Normalized tolerance index (TI) [5],Normalized tolerance index (TI) [6],Normalized tolerance index (TI) [7]
"CC1=NOC(c2c(Cl)ccc(C3=C(O)c4ncccc4N(CC(F)F)S3(=O)=O)c2Cl)C1 (centres unmarked) [Inhibitor 1, 3-[2,4-dichloro-3-(3-methyl-4,5-dihydroisoxazol-5-yl)phenyl]-1-(2,2-difluoroethyl)-2,2-dioxo-pyrido[3,2-c]thiazin-4-ol]",73.9,1,1.6,3.3,3.8,7.4,40.1
"O=S1(=O)C(c2c(Cl)cc(Cl)nc2Cl)=C(O)c2ncccc2N1CC(F)F [Inhibitor 2, 1-(2,2-difluoroethyl)-2,2-dioxo-3-(2,4,6-trichloro-3-pyridyl)pyrido[3,2-c]thiazin-4-ol]",20.5,1,3.2,1.7,2.2,5.2,17.1
